Common to all, as to experiment: ≥ marks a high value that may be exact or a test limit, other limits are often not marked, values filed in µg/mL are converted to µM
For assay [1], the system named is Staphylococcus aureus NCTC 8325.
Assay [2] concerns Proteus mirabilis ATCC 25933.
The subject of assay [3] is Bacteroides fragilis ATCC 25285.
Assay [4] concerns Staphylococcus epidermidis RP62A.
Assay [5] deals with Peptostreptococcus anaerobius.
Assay [6] deals with Clostridium septicum.
Assay [7] has as its system Clostridium tertium ATCC 19465.
In assay [8] the test system is Bacteroides fragilis.
The subject of assay [9] is Fusobacterium varium ATCC 27725.
In assay [10] the test system is Fusobacterium nucleatum.
Assay [11] has as its system Peptoniphilus asaccharolyticus ATCC 29743.
Assay [12] has as its system Enterococcus faecalis ATCC 29212.
Assay [13] concerns Cutibacterium acnes.
Assay [14] concerns Escherichia coli ATCC 25922.
For assay [15], the system named is Pseudomonas aeruginosa ATCC 27853.
For assay [16], the system named is Salmonella enterica subsp. enterica serovar Typhimurium LT2.
Assay [17] concerns Clostridium perfringens ATCC 10543.
For assay [18], the system named is Cutibacterium acnes ATCC 11828.
The test system of assay [19] is Candida albicans ATCC 90028.
In assay [20] the test system is Enterobacter cloacae HNTCC 53001.
For assay [21], the system named is Prevotella melaninogenica.
The test system of assay [22] is Klebsiella pneumoniae KK3 9904.
In assay [23] the test system is Staphylococcus aureus T7/5.
Assay [24] relates to Staphylococcus aureus T17/13.

≈ marks a conversion by molar mass, not a printed value.

For orientation: MIC means the lowest concentration found to suppress growth. For `CC[C@H](C)[C@H](NC(=O)[C@@H](N)CCCN=C(N)N)C(=O)NCC(=O)N[C@H](C(=O)N[C@@H](CC(C)C)C(=O)N[C@@H](CC(C)C)C(=O)N[C@@H](C)C(=O)N[C@@H](CCCN=C(N)N)C(=O)N[C@@H](CC(C)C)C(=O)N1CCC[C@H]1C(=O)N[C@@H](CCCCN)C(=O)N[C@@H](CC(C)C)C(=O)N[C@@H](Cc1ccccc1)C(=O)N[C@@H](CO)C(=O)N[C@@H](CC(C)C)C(=O)N[C@@H](Cc1ccccc1)C(=O)N[C@@H](CCCCN)C(=O)N[C@@H](CC(C)C)C(=O)N[C@@H](CCSC)C(=O)NCC(=O)N[C@@H](CCCCN)C(=O)N[C@@H](CCCCN)C(=O)N[C@H](C(=O)O)C(C)C)C(C)C` [RIGVLLARLPKLFSLFKLMGKKV], the MIC in assay [1] was at least 40 µM; in assay [2], at least 100 µM; in assay [3], at least 50 µM; in [4], 6 µM (≈ 15.8 µg/mL); in assay [5], 25 µM (≈ 65.7 µg/mL); in assay [6], at least 50 µM. In addition, the MIC in [7] is 12.5 µM (≈ 32.9 µg/mL); in assay [8], at least 50 µM; in assay [9], at least 50 µM; in assay [10], at least 50 µM; in [11] it was at least 50 µM; in assay [12], 12.5 µM (≈ 32.9 µg/mL). The minimum inhibitory concentration (MIC) in [13] came to 6 µM (≈ 15.8 µg/mL); in [14], 2.5 µM (≈ 6.57 µg/mL); in [15], 6 µM (≈ 15.8 µg/mL); in assay [16] it was 25 µM (≈ 65.7 µg/mL); in [17], 12.5 µM (≈ 32.9 µg/mL); in assay [18], 12.5 µM (≈ 32.9 µg/mL). In addition, the MIC in assay [19] is at least 80 µM; in assay [20] it was 6 µM (≈ 15.8 µg/mL); in assay [21] it was 6 µM (≈ 15.8 µg/mL); in assay [22], 12.5 µM (≈ 32.9 µg/mL); in assay [23], 20 µM (≈ 52.6 µg/mL); in assay [24], 10 µM (≈ 26.3 µg/mL).

Source of the values: DBAASP.
